Laboratory results from ChEMBL document CHEMBL4251601 (Eur J Med Chem, 2018).

Tests used:
CDK6/cyclin D3 = CDK6/cyclin D3 (Homo sapiens, UniProt Q00534); experiment: Inhibition of CDK6/Cyclin-D3 (unknown origin) using histoneH1 as substrate after 90 mins by ADP-Glo assay; assay type: protein-complex assay
CDK1/Cyclin A = CDK1/Cyclin A (Homo sapiens, UniProt P06493); experiment: Inhibition of CDK1/Cyclin-A2 (unknown origin) using histone-H1 as substrate after 90 mins by ADP-Glo assay; assay type: protein-complex assay
CDK1/Cyclin A, sequence (P06493 whole entry): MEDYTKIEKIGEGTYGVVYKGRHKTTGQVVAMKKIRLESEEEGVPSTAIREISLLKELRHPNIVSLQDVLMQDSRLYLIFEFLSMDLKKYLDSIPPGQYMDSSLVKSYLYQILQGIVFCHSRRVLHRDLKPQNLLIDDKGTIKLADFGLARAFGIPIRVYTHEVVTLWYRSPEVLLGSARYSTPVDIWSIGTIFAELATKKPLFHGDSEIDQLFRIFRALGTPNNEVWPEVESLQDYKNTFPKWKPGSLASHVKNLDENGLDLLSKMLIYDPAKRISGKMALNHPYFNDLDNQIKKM
CDK1/Cyclin A, sequence (P20248 whole entry, further chain): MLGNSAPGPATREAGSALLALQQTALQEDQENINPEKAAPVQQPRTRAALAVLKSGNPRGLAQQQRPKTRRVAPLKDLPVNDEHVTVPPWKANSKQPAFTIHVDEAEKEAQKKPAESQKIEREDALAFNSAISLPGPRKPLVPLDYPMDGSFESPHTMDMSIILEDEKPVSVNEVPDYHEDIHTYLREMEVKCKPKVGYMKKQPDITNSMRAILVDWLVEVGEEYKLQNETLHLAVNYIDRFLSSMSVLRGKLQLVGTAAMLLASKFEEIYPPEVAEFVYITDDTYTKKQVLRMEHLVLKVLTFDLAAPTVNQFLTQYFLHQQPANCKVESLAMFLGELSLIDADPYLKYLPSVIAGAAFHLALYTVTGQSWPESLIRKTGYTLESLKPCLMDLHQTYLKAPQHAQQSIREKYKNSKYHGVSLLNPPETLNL

Homo sapiens = species on record: Homo sapiens; experiment: Selectivity ratio of IC50 for CDK1/Cyclin-A2 (unknown origin) to IC50 for CDK6/Cyclin-D3 (unknown origin)
[1] = target: Cyclin-dependent kinase 4/cyclin D1 (Homo sapiens, UniProt P11802); experiment: Inhibition of CDK4/Cyclin-D1 (unknown origin) using histone-H1 as substrate after 90 mins by ADP-Glo assay; assay type: protein-complex assay
Cyclin-dependent kinase 4/cyclin D1, sequence (P11802 whole entry): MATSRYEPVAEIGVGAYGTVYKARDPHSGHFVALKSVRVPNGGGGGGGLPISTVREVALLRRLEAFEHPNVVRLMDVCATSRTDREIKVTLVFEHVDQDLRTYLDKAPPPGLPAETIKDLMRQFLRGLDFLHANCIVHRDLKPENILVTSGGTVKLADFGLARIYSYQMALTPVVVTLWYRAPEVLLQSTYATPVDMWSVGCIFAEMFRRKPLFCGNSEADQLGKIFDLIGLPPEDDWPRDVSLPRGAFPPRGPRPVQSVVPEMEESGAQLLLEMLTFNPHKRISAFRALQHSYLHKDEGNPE
Cyclin-dependent kinase 4/cyclin D1, sequence (P24385 whole entry, further chain): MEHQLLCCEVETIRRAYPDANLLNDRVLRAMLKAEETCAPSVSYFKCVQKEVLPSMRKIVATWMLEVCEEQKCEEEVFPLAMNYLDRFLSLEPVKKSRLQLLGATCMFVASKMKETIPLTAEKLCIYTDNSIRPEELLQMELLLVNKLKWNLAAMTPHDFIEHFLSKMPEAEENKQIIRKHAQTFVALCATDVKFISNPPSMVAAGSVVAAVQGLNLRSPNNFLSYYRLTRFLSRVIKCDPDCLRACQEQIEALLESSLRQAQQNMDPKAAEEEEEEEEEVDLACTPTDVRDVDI

[2] = Clearance in Sprague-Dawley rat at 2 mg/kg, iv administered as single dose by LC-MS/MS analysis; assay type: ADME, organism-based; details: in vivo
[3] = Volume of distribution at steady state in Sprague-Dawley rat at 2 mg/kg, iv administered as single dose by LC-MS/MS analysis; assay type: ADME, organism-based; details: in vivo, read-out: Vdss
[4] = Cmax in Sprague-Dawley rat at 5 mg/kg, po administered as single dose by LC-MS/MS analysis; assay type: ADME, organism-based; parameters: dose 5 mg/kg, route oral; details: in vivo
[5] = AUC (0 to 24 hrs) in Sprague-Dawley rat at 2 mg/kg, iv administered as single dose by LC-MS/MS analysis; assay type: ADME, organism-based; parameters: dose 2 mg/kg, time < 24 hr, route intravenous; details: in vivo
[6] = AUC (0 to 24 hrs) in Sprague-Dawley rat at 5 mg/kg, po administered as single dose by LC-MS/MS analysis; assay type: ADME, organism-based; parameters: time < 24 hr, dose 5 mg/kg, route oral; details: in vivo
[7] = AUC (0 to infinity) in Sprague-Dawley rat at 2 mg/kg, iv administered as single dose by LC-MS/MS analysis; assay type: ADME, organism-based; parameters: dose 2 mg/kg, route intravenous, time infinity; details: Sprague-Dawley, in vivo
[8] = AUC (0 to infinity) in Sprague-Dawley rat at 5 mg/kg, po administered as single dose by LC-MS/MS analysis; assay type: ADME, organism-based; parameters: dose 5 mg/kg, route oral, time infinity; details: Sprague-Dawley, in vivo
[9] = Half life in Sprague-Dawley rat at 2 mg/kg, iv administered as single dose by LC-MS/MS analysis; assay type: ADME, organism-based; details: in vivo
[10] = Oral bioavailability in Sprague-Dawley rat at 5 mg/kg administered as single dose by LC-MS/MS analysis; assay type: ADME, organism-based; details: Sprague-Dawley, in vivo
[11] = Half life in Sprague-Dawley rat at 5 mg/kg, po administered as single dose by LC-MS/MS analysis; assay type: ADME, organism-based; details: in vivo

CDK6/cyclin D3, sequence (P30281 whole entry): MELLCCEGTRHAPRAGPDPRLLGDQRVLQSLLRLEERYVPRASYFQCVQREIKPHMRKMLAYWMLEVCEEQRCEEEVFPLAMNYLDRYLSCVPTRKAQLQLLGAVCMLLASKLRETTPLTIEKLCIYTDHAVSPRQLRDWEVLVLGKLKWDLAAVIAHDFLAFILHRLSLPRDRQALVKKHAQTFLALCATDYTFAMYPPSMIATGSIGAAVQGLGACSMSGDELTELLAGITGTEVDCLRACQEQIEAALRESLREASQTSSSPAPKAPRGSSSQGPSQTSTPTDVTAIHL
CDK6/cyclin D3, sequence (Q00534 whole entry): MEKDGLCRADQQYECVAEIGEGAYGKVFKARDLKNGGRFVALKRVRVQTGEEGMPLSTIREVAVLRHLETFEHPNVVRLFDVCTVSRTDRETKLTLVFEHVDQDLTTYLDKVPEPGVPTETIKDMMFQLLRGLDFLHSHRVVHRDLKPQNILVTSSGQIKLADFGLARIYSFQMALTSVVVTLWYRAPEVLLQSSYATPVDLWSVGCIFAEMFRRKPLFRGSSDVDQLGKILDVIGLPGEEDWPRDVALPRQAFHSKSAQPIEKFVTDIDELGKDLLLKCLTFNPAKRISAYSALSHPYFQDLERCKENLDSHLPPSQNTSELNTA

SMILES	IC50 (CDK6/cyclin D3) [nM]	IC50 (CDK1/Cyclin A) [nM]	Ratio IC50 (Homo sapiens)	IC50 [1] [nM]	clearance [2] [mL/min/kg]	Vd [3] [L/kg]	Cmax [4] [ng/mL]	AUC(0-t) at 24 h [5] [ng·h/mL]	AUC(0-t) at 24 h [6] [ng·h/mL]	AUC(0-inf) [7] [ng·h/mL]	AUC(0-inf) [8] [ng·h/mL]	half-life [9] [min]	bioavailability [10] [%]	half-life [11] [min]
CCN1CCN(c2ccc(Nc3ncc(F)c(-c4ccc5c(c4)C(C)(CC)C(C)=N5)n3)nc2)CC1 (stereo not given)	4	101	25											
CC1=Nc2ccc(-c3nc(Nc4ccc(N5CCN(C)CC5)cn4)ncc3F)cc2C12CCCC2	9		46	15	72.9	15.7	28.9	442	269	458	382	288	24	
CCN1CCC(c2ccc(Nc3ncc(F)c(-c4ccc5c(c4)C4(CCCC4)C(C)=N5)n3)nc2)CC1			5											
CCC1(C)C(C)=Nc2ccc(-c3nc(Nc4ccc(N5CCNCC5)cn4)ncc3F)cc21 (stereo not given)		142	14	28										
CCC1(CC)C(C)=Nc2c(F)cc(-c3nc(Nc4ccc(N5CCNCC5)cn4)ncc3F)cc21	3		27	3	125	28.1	13.7	256	106	270		180	16	
CC1=Nc2c(F)cc(-c3nc(Nc4ccc(C5CCN(CCO)CC5)cn4)ncc3F)cc2C12CCCC2	0.5		352											
CCN1CCC(c2ccc(Nc3ncc(F)c(-c4cc(F)c5c(c4)C4(CCCC4)C(C)=N5)n3)nc2)CC1	4		268	6	10.8	11.6	143	2250	1980	3190		792	35	
CC1=Nc2c(F)cc(-c3nc(Nc4ccc(N5CCNCC5)cn4)ncc3F)cc2C1(C)C		2220	52											
CCN1CCC(c2ccc(Nc3ncc(F)c(-c4ccc5c(c4)C(C)(CC)C(C)=N5)n3)nc2)CC1 (stereo not given)	19	125	6	42										
CCN1CCC(c2ccc(Nc3ncc(F)c(-c4cc(F)c5c(c4)C(C)(CC)C(C)=N5)n3)nc2)CC1 (stereo not given)	12	216	18	16										
CC1=Nc2ccc(-c3nc(Nc4ccc(N5CCNCC5)cn4)ncc3F)cc2C12CCCC2	4		58	4	28.3	11	80.3	1140	980	1180		288	34	
CC1=Nc2ccc(-c3nc(Nc4ccc(C5CCNCC5)cn4)ncc3F)cc2C12CCCC2	4		7	4										
CCN1CCN(Cc2ccc(Nc3ncc(F)c(-c4ccc5c(c4)C4(CCCC4)C(C)=N5)n3)nc2)CC1	7		38	13										
CCN1CCN(c2ccc(Nc3ncc(F)c(-c4cc(F)c5c(c4)C(C)(CC)C(C)=N5)n3)nc2)CC1 (stereo not given)		65	1											
CCN1CCN(Cc2ccc(Nc3ncc(F)c(-c4cc(F)c5c(c4)C(CC)(CC)C(C)=N5)n3)nc2)CC1			9											
CCC1(C)C(C)=Nc2c(F)cc(-c3nc(Nc4ccc(N5CCNCC5)cn4)ncc3F)cc21 (stereo not given)	3	84	28	44	125	28.1	18	256	145	270		180	23	
CCC1(C)C(C)=Nc2c(F)cc(-c3nc(Nc4ccc(C5CCN(C)CC5)cn4)ncc3F)cc21 (stereo not given)	9	131	14	16	77.8	40.1	22.3	404	287	447		420	28	
CCC1(C)C(C)=Nc2c(F)cc(-c3nc(Nc4ccc(C5CCNCC5)cn4)ncc3F)cc21 (stereo not given)	6	110	18											
CC1=Nc2c(F)cc(-c3nc(Nc4ccc(N5CCN(CCO)CC5)cn4)ncc3F)cc2C12CCCC2	6		55	17										
CC1=Nc2c(F)cc(-c3nc(Nc4ccc(N5CCN(C(C)C)CC5)cn4)ncc3F)cc2C12CCCC2	10	1060	106	78										
CCC1(C)C(C)=Nc2ccc(-c3nc(Nc4ccc(C5CCN(C)CC5)cn4)ncc3F)cc21 (stereo not given)	9	54	6	18										
CCC1(C)C(C)=Nc2ccc(-c3nc(Nc4ccc(N5CCN(C)CC5)cn4)ncc3F)cc21 (stereo not given)	5	112	22	35										
CC1=Nc2ccc(-c3nc(Nc4ccc(C5CCN(C)CC5)cn4)ncc3F)cc2C12CCCC2	4		12	8										
CCC1(C)C(C)=Nc2c(F)cc(-c3nc(Nc4ccc(N5CCN(C)CC5)cn4)ncc3F)cc21 (stereo not given)	1	153	153	6	69.2	6.4		496		504		126		
CC1=Nc2c(F)cc(-c3nc(Nc4ccc(N5CCN(C)CC5)cn4)ncc3F)cc2C12CCCC2			16		42.3	8.5	37	761	386	796	420	228	21	306
CCC1(C)C(C)=Nc2ccc(-c3nc(Nc4ccc(C5CCNCC5)cn4)ncc3F)cc21 (stereo not given)	16	166	10											
CC1=Nc2c(F)cc(-c3nc(Nc4ccc(C5CCNCC5)cn4)ncc3F)cc2C12CCCC2	0.4		818	8	24.6	15.6	62.1	1200	867	1370		516	29	
CCC1(CC)C(C)=Nc2c(F)cc(-c3nc(Nc4ccc(N5CCN(C)CC5)cn4)ncc3F)cc21		96	11	10	167	17.9		204		213		84		
